Measured values as given in patent US20230234936A1, “COMPOUND FOR TARGETING AND DEGRADING PROTEIN, AND PREPARATION METHOD THEREFOR AND USE THEREOF” (SHANGHAI LEADINGTAC PHARMACEUTICAL CO., LTD., priority 2020, published 2023).

Target: T1, IRAK4 protein in THP-1 cells (Homo sapiens, UniProt Q9NWZ3)
T1 construct: endogenous in cells; host or cells: THP-1
T1 sequence (Q9NWZ3 1-460): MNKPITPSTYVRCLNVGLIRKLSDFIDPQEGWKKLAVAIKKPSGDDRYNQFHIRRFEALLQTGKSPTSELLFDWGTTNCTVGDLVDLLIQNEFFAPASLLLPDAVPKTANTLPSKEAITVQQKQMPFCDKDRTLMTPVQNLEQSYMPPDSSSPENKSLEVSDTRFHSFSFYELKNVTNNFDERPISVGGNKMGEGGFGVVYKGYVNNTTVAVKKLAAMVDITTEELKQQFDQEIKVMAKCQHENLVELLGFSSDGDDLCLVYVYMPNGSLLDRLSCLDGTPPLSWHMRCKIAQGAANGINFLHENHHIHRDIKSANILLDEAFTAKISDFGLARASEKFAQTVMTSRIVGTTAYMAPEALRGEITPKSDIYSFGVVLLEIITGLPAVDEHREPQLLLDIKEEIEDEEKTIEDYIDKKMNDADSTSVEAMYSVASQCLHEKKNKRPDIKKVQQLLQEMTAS
Assay: Degradation of IRAK4 in THP-1 cells (Western blot)
Assay type: cell-based
Details: 24 hours, compound 1-3000 nM
Procedure, shortened: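 THP-1 cells (5×10^5/well) treated 24 h with compound at 1–3000 nM final. IRAK4 in lysates quantified by Western blot, normalized to internal reference and compared with control to give degradation rate; DC50 and Dmax from nonlinear fit of log concentration.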

Row | Structure (SMILES) | DC50 [nM] | Dmax [%]
1 | COc1cc2nn(C3CCN(CC4CCN(CCOc5ccc6c(c5)C(=O)N(C5CCC(=O)NC5=O)C6=O)CC4)CC3)cc2cc1NC(=O)c1cccc(C(F)(F)F)n1 (centres unmarked) [Control group 2, N-(2-(1-((1-(2-((2-(2,6-dioxopiperidin-3-yl)-1,3-dioxoisoindol-5-yl)oxy)ethyl)piperidin-4-yl)methyl)piperidin-4-yl)-6-methoxy-2H-indazol-5-yl)-6-(trifluoromethyl) pyridinecarboxamide, reference compound] | 40.6 | –
2 | CN(CC1CCN(c2cccc3c2C(=O)N(C2CCC(=O)NC2=O)C3=O)CC1)C[C@H]1CC[C@H](n2cc3cc(NC(=O)c4cccc(C(F)(F)F)n4)c(C(C)(C)O)cc3n2)CC1 (some centres unmarked) [Control group 3, N-(2-((1r,4r)-4-((((1-(2-(2,6-dioxopiperidin-3-yl)-1,3-dioxoisoindolin-4-yl)piperidin-4-yl)methyl) (methyl)amino)methyl)cyclohexyl)-6-(2-hydroxyprop-2-yl)-2H-indazol-5-yl)-6-(trifluoromethyl) pyridinecarboxamide, reference compound] | 19.8 | 75.3
3 | CC(C)(O)c1cc2nn(C3CCN(CC4CCC5(CC4)CCN(C(=O)c4ccc(Cl)c(N6CCC(=O)NC6=O)c4)CC5)CC3)cc2cc1NC(=O)c1cccc(C(F)(F)F)n1 [Example 31, N-(2-(1-((3-(4-chloro-3-(2,4-dioxotetrahydro-pyrimidin-1 (2H)-yl)benzoyl)-3-azaspiro [5.5]undec-9-yl)methyl)piperdin-4-yl)-6-(2-hydroxyprop-2-yl)-2H-indazol-5-yl)-6-(trifluoro-methyl) pyridinecarbox-amide] | 2.6 | 97.1
